Experimental data published in patent US11807625B2, “Capsid inhibitors for the prevention of HIV” (Gilead Sciences, Inc., priority 2019, dated 2023).

Assay: PK of compound of Formula (Ia) after single subcutaneous dose of solution formulations in beagle dogs
Format: in vivo
Conditions: male, beagle, dog, plasma, sc, 12 mg/kg, beagle dogs, SC 12 mg/kg
Procedure: Formulations containing the compound of Formula (Ia), or a pharmaceutically acceptable salt thereof, were prepared as solutions and optionally administered subcutaneously or intramuscularly to rats, rabbits, and/or dogs.
(§1) A solution of about 400 mg/mL of the compound of Formula (Ia) having 17.00 w/w % water, 36.40 w/w % PEG 300, 35.20 w/w % of a sodium salt of a compound of Formula (Ia), 5.00 w/w % ethanol, and 6.40 w/w % poloxamer 188 was prepared. The solution was administered subcutaneously to male beagle dogs at a dose level of about 12 mg/kg and male Wistar Han rats at a dose level of about 50 mg/kg. The pharmacokinetic profiles were determined, and the results for dogs are summarized in Table and Table, while the results for rats are summarized in Table and Table below.
as §1, with “500” for “400”, “14.06” for “17.00”, “30.12” for “36.40”
A solution of about 300 mg/mL of the compound of Formula (Ia) having 23.33 w/w % water, 48.99 w/w % PEG 300, 26.47 w/w % of a sodium salt of a compound of Formula (Ia), and 1.21 w/w % poloxamer 188 was prepared. The solution was administered subcutaneously to male beagle dogs at a dose level of about 6 mg/kg and male Wistar Han rats at a dose level of about 50 mg/kg. The pharmacokinetic profiles were determined, and the results for dogs are summarized in Table and Table, while the results for rats are summarized in Table and Table below.
as §1, with “18.80” for “17.00”, “40.25” for “36.40”, “34.38” for “35.20”, “1.57” for “6.40”
as §1, with “500” for “400”, “16.29” for “17.00”, “34.88” for “36.40”, “41.92” for “35.20”, “1.91” for “6.40”
as §1, with “20.90” for “17.00”, “44.72” for “36.40”, “and 34.38” for “35.20”, “(Ia)” for “(Ia), 5.00 w/w % ethanol, and 6.40 w/w % poloxamer 188”
A solution of about 400 mg/mL of the compound of Formula (Ia) having 19.90 w/w % water, 42.59 w/w % PEG 300, 34.38 w/w % of a sodium salt of a compound of Formula (Ia), and 3.13 w/w % poloxamer 188 was prepared. The solution was administered subcutaneously to male beagle dogs at a dose level of about 12 mg/kg and male Wistar Han rats at a dose level of about 50 mg/kg. […]

[1] = 400 mg/mL solution W (5.00% ethanol, 1.57% poloxamer 188), Mean n = 3
[2] = 400 mg/mL solution W (5.00% ethanol, 1.57% poloxamer 188), animals #1-#3
[3] = 400 mg/mL solution Y (water, PEG 300), Mean n = 3
[4] = 400 mg/mL solution Y (water, PEG 300), animals #1-#3
[5] = 400 mg/mL solution Z (3.13% poloxamer 188), animals #1-#3
[6] = 400 mg/mL solution Z (3.13% poloxamer 188), Mean n = 3
[7] = 500 mg/mL solution X (5.00% ethanol, 1.91% poloxamer 188), Mean n = 3
[8] = 500 mg/mL solution X (5.00% ethanol, 1.91% poloxamer 188), animals #1-#3

concentration at 96 h [1]: 43.5 nM
concentration at 168 h [1]: 40.3 nM
concentration at 336 h [1]: 133 nM
concentration at 504 h [1]: 121 nM
concentration at 672 h [1]: 145 nM
concentration at 840 h [1]: 82.4 nM
concentration at 1008 h [1]: 71.7 nM
concentration at 1008 h [2]: 80.7 nM
concentration at 1344 h [1]: 80.7 nM
concentration at 1344 h [2]: 72.3 nM
concentration at 1680 h [1]: 34.9 nM
concentration at 1680 h [2]: 28.8 nM
concentration at 2016 h [1]: 35.3 nM
concentration at 2016 h [2]: 25.8 nM
concentration at 2352 h [1]: 21.9 nM
concentration at 2352 h [2]: 16.8 nM
concentration at 2688 h [1]: 13.3 nM
concentration at 2688 h [2]: 9.87 nM
concentration at 3024 h [1]: 11.4 nM
concentration at 3024 h [2]: 10.5 nM
concentration at 3360 h [1]: 7.4 nM
concentration at 3360 h [2]: 6.7 nM
concentration at 3696 h [1]: 4.7 nM
concentration at 4032 h (400 mg/mL solution W (5.00% ethanol, 1.57% poloxamer 188), 4032 h, Mean n = 3): 5.6 nM
concentration at 4368 h (400 mg/mL solution W (5.00% ethanol, 1.57% poloxamer 188), 4368 h, Mean n = 3): 5.7 nM
concentration at 1 h [3]: 9.61 nM
concentration at 3 h [3]: 17.9 nM
concentration at 8 h [3]: 33.9 nM
concentration at 24 h [3]: 69.9 nM
concentration at 48 h [3]: 77.1 nM
concentration at 72 h [3]: 58.5 nM
concentration at 72 h [4]: 73.6 nM
concentration at 96 h [3]: 58.4 nM
concentration at 96 h [4]: 73.8 nM
concentration at 168 h [3]: 47.8 nM
concentration at 168 h [4]: 41.2 nM
concentration at 336 h [3]: 164 nM
concentration at 336 h [4]: 163 nM
concentration at 504 h [3]: 248 nM
concentration at 504 h [4]: 247 nM
concentration at 672 h [3]: 205 nM
concentration at 672 h [4]: 229 nM
concentration at 840 h [3]: 123 nM
concentration at 840 h [4]: 136 nM
concentration at 1008 h [3]: 95.8 nM
concentration at 1008 h [4]: 119 nM
concentration at 1334 h [3]: 58.2 nM
concentration at 1334 h [4]: 70.5 nM
concentration at 1680 h [3]: 28.4 nM
concentration at 1680 h [4]: 27.2 nM
concentration at 2016 h [3]: 18.6 nM
concentration at 2016 h [4]: 17.7 nM
concentration at 2352 h [3]: 15.4 nM
concentration at 2352 h [4]: 18.1 nM
concentration at 2688 h [3]: 9.47 nM
concentration at 2688 h [4]: 8.23 nM
concentration at 3024 h [3]: 6.15 nM
concentration at 3024 h [4]: 5.55 nM
concentration at 3360 h [3]: 5.11 nM
concentration at 3696 h [3]: 3.76 nM
concentration at 1 h (400 mg/mL solution Z (3.13% poloxamer 188), Mean): 1.58 nM
concentration at 1 h [5]: 1.66 nM
concentration at 3 h [6]: 5.83 nM
concentration at 8 h [6]: 34 nM
concentration at 24 h [6]: 80.5 nM
concentration at 48 h [6]: 61.6 nM
concentration at 72 h [6]: 65.1 nM
concentration at 72 h [5]: 89.8 nM
concentration at 96 h [6]: 70.6 nM
concentration at 168 h [6]: 60.6 nM
concentration at 336 h [6]: 172 nM
concentration at 504 h [6]: 228 nM
concentration at 504 h [5]: 301 nM
concentration at 672 h [6]: 117 nM
concentration at 672 h [5]: 144 nM
concentration at 840 h [6]: 95.7 nM
concentration at 840 h [5]: 107 nM
concentration at 1008 h [6]: 79.9 nM
concentration at 1008 h [5]: 93.3 nM
concentration at 1334 h [6]: 50.2 nM
concentration at 1334 h [5]: 51.6 nM
concentration at 1680 h [6]: 24.2 nM
concentration at 2016 h [6]: 15.2 nM
concentration at 2352 h [6]: 8.85 nM
concentration at 2688 h [6]: 6.06 nM
concentration at 3024 h [6]: 5.61 nM
concentration at 3024 h [5]: 3.65 nM
concentration at 3360 h [6]: 3.41 nM
concentration at 3696 h [6]: 1.75 nM
concentration at 1 h [7]: 12.1 nM
concentration at 3 h [7]: 15.2 nM
concentration at 3 h [8]: 19.4 nM
concentration at 8 h [7]: 26.1 nM
concentration at 8 h [8]: 22.3 nM
Structure (SMILES): CC(C)(C#Cc1ccc(-c2ccc(Cl)c3c(NS(C)(=O)=O)nn(CC(F)(F)F)c23)c([C@H](Cc2cc(F)cc(F)c2)NC(=O)Cn2nc(C(F)(F)F)c3c2C(F)(F)[C@@H]2C[C@H]32)n1)S(C)(=O)=O [compound of Formula (Ia)]
